≈ marks a conversion by molar mass, not a printed value. Where two headings read alike, the source gives them in different places.
Experiments:
[1] = tested on: Acinetobacter calcoaceticus ATCC 15473; test: Antibacterial activity, MIC; type: cell-based; settings: ATCC15473, ATCC 15473, agar two-fold dilution, 37° C., 20 hours, read-out: MIC
Outline: (§1)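 Plates of Mueller-Hinton agar containing two-fold serial dilutions of compound were inoculated with 2 μl of test strain suspension (10^7 CFU per ml) and incubated for 20 hours at 37 °C.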

[2] = tested on: Bacillus cereus ATCC 11778; test: Antibacterial activity, MIC; type: cell-based; settings: ATCC11778, ATCC 11778, agar two-fold dilution, 37° C., 20 hours, read-out: MIC
Outline: as §1

[3] = tested on: Bacillus megaterium ATCC 9885; test: Antibacterial activity, MIC; type: cell-based; settings: Priestia megaterium, ATCC9885; ATCC 9885; agar two-fold dilution, 37° C., 20 hours; read-out: MIC
Outline: as §1

[4] = tested on: Enterobacter aerogenes ATCC 29751; test: Antibacterial activity, MIC; type: cell-based; settings: Klebsiella aerogenes, ATCC29751; ATCC 29751; agar two-fold dilution, 37° C., 20 hours; read-out: MIC
Outline: as §1

[5] = tested on: Escherichia coli ATCC 25922; test: Antibacterial activity, MIC; type: cell-based; settings: ATCC25922, agar two-fold dilution, 37° C., 20 hours
Outline: as §1

[6] = tested on: Klebsiella pneumoniae ATCC 10031; test: Antibacterial activity, MIC; type: cell-based; settings: ATCC10031, ATCC 10031, agar two-fold dilution, 37° C., 20 hours, read-out: MIC
Outline: as §1

[7] = tested on: Micrococcus luteus ATCC 9341; test: Antibacterial activity, MIC; type: cell-based; settings: ATCC9341, ATCC 9341, agar two-fold dilution, 37° C., 20 hours, read-out: MIC
Outline: as §1

[8] = tested on: Morganella morganii ATCC 8076h; test: Antibacterial activity, MIC; type: cell-based; settings: ATCC8076H, agar two-fold dilution, 37° C., 20 hours
Outline: as §1

[9] = tested on: Proteus mirabilis ATCC 25933; test: Antibacterial activity, MIC; type: cell-based; settings: ATCC25933, ATCC 25933, agar two-fold dilution, 37° C., 20 hours, read-out: MIC
Outline: as §1

[10] = tested on: Proteus vulgaris ATCC 6059; test: Antibacterial activity, MIC; type: cell-based; settings: ATCC6059, ATCC 6059, agar two-fold dilution, 37° C., 20 hours, read-out: MIC
Outline: as §1

[11] = tested on: Providencia rettgeri ATCC 9250; test: Antibacterial activity, MIC; type: cell-based; settings: ATCC9250, agar two-fold dilution, 37° C., 20 hours
Outline: as §1

[12] = tested on: Pseudomonas aeruginosa ATCC 10145; test: Antibacterial activity, MIC; type: cell-based; settings: ATCC10145, ATCC 10145, agar two-fold dilution, 37° C., 20 hours, read-out: MIC
Outline: as §1

[13] = tested on: Pseudomonas aeruginosa ATCC 25619; test: Antibacterial activity, MIC; type: cell-based; settings: ATCC25619, ATCC 25619, agar two-fold dilution, 37° C., 20 hours, read-out: MIC
Outline: as §1

[14] = tested on: Pseudomonas aeruginosa ATCC 27853; test: Antibacterial activity, MIC; type: cell-based; settings: ATCC27853, ATCC 27853, agar two-fold dilution, 37° C., 20 hours, read-out: MIC
Outline: as §1

[15] = tested on: Salmonella typhimurium ATCC 14028; test: Antibacterial activity, MIC; type: cell-based; settings: Salmonella enterica; ATCC 14028; agar two-fold dilution, 37° C., 20 hours; read-out: MIC
Outline: as §1

[16] = tested on: Serratia marcescens ATCC 27117; test: Antibacterial activity, MIC; type: cell-based; settings: ATCC27117, ATCC 27117, agar two-fold dilution, 37° C., 20 hours, read-out: MIC
Outline: as §1

[17] = tested on: Shigella flexneri ATCC 11836; test: Antibacterial activity, MIC; type: cell-based; settings: ATCC11836, agar two-fold dilution, 37° C., 20 hours
Outline: as §1

[18] = tested on: Shigella sonnei ATCC 11060; test: Antibacterial activity, MIC; type: cell-based; settings: ATCC11060, ATCC 11060, agar two-fold dilution, 37° C., 20 hours, read-out: MIC
Outline: as §1

[19] = tested on: Staphylococcus aureus ATCC 10537; test: Antibacterial activity, MIC; type: cell-based; settings: ATCC10537, ATCC 10537, agar two-fold dilution, 37° C., 20 hours, read-out: MIC
Outline: as §1

[20] = tested on: Staphylococcus aureus ATCC 6538p; test: Antibacterial activity, MIC; type: cell-based; settings: ATCC6538P, ATCC 6538p, agar two-fold dilution, 37° C., 20 hours, read-out: MIC
Outline: as §1

[21] = tested on: Staphylococcus epidermidis ATCC 12228; test: Antibacterial activity, MIC; type: cell-based; settings: ATCC12228, ATCC 12228, agar two-fold dilution, 37° C., 20 hours, read-out: MIC
Outline: as §1

[22] = tested on: Klebsiella pneumoniae; test: Antibacterial activity against clinically isolated strains, MIC; type: cell-based; settings: 10 clinical isolates, broth microdilution test; for MIC90: read-out: MIC 90%
[23] = tested on: Staphylococcus aureus methicillin susceptible; test: as above; type: cell-based; settings: methicillin susceptible, 42 clinical isolates, broth microdilution test; for MIC90: read-out: MIC 90%
[24] = tested on: Staphylococcus aureus methicillin resistant; test: as above; type: cell-based; settings: methicillin resistant, 7 clinical isolates, broth microdilution test; for MIC90: read-out: MIC 90%
[25] = tested on: Pseudomonas aeruginosa; test: as above; type: cell-based
[26] = In-vivo absorbency (plasma concentrations & pharmacokinetic parameters); design: species or system SD rat (male); settings: plasma, SD male rat, iv 20 mg/kg; for concentration at 1 h: 60 min; for concentration at 1 h / concentration at 2 h: read-out: Plasma Conc.; for concentration at 2 h: 120 min; for AUC / half-life: two compartment model; for half-life: rat, iv, 20 mg/kg
Text: The blood samples from the femoral vein of the rats were taken every hour after administration, and analyzed by bio-assay(agar well method).
Tested animal: SD male Rat (220~340 g)

[27] = as above; design: species or system SD rat (male); settings: plasma, SD male rat, iv 20 mg/kg, read-out: Plasma Conc.
[28] = 54 clinical isolates, broth microdilution test

SMILES: CC(O/N=C(\C(=O)NC1C(=O)N2C(C(=O)[O-])=C(CSc3nc(N)cc(N)[n+]3C)CSC12)c1csc(N)n1)C(=O)O (stereo not drawn) [Compound I-4]
- MIC [1]: 4 µg/mL (≈ 6.56 µM)
- MIC [2]: > 128 µg/mL
- MIC [3]: 1 µg/mL (≈ 1.64 µM)
- MIC [4]: 1 µg/mL (≈ 1.64 µM)
- MIC [5]: 0.031 µg/mL (≈ 0.0508 µM)
- MIC [6]: 0.031 µg/mL (≈ 0.0508 µM)
- MIC [7]: 0.5 µg/mL (≈ 0.82 µM)
- MIC [8]: ≤ 0.008 µg/mL
- MIC [9]: 0.031 µg/mL (≈ 0.0508 µM)
- MIC [10]: 0.031 µg/mL (≈ 0.0508 µM)
- MIC [11]: ≤ 0.008 µg/mL
- MIC [12]: 2 µg/mL (≈ 3.28 µM)
- MIC [13]: 2 µg/mL (≈ 3.28 µM)
- MIC [14]: 1 µg/mL (≈ 1.64 µM)
- MIC [15]: 0.13 µg/mL (≈ 0.213 µM)
- MIC [16]: 0.063 µg/mL (≈ 0.103 µM)
- MIC [17]: 0.031 µg/mL (≈ 0.0508 µM)
- MIC [18]: 0.031 µg/mL (≈ 0.0508 µM)
- MIC [19]: 2 µg/mL (≈ 3.28 µM)
- MIC [20]: 4 µg/mL (≈ 6.56 µM)
- MIC [21]: 2 µg/mL (≈ 3.28 µM)
- MIC50 [22]: 0.031 µg/mL (≈ 0.0508 µM)
- MIC90 [22]: 0.13 µg/mL (≈ 0.213 µM)
- MIC50 [23]: 4 µg/mL (≈ 6.56 µM)
- MIC90 [23]: 4 µg/mL (≈ 6.56 µM)
- MIC [24]: > 32 µg/mL
- MIC50 [24]: > 32 µg/mL
- MIC90 [24]: > 32 µg/mL
- MIC90 [25]: 16 µg/mL (≈ 26.2 µM)
- MIC50 [25, 28]: 4 µg/mL (≈ 6.56 µM)
- concentration at 1 h [26]: 2600 ng/mL
- concentration at 2 h [26]: 400 ng/mL
- AUC [26]: 18600 ng·h/mL
- half-life ([26]; read-out: T1/2 (α)): 2 min
- half-life ([26]; read-out: T1/2 (β)): 26 min
- concentration at 1 min [27]: 64000 ng/mL
- concentration at 2.5 min [27]: 42000 ng/mL
- concentration at 5 min [27]: 32000 ng/mL
- concentration at 10 min [27]: 14000 ng/mL
- concentration at 20 min [27]: 7300 ng/mL
- concentration at 40 min [27]: 4500 ng/mL

SMILES: CC[n+]1c(N)cc(N)nc1SCC1=C(C(=O)[O-])N2C(=O)C(NC(=O)/C(=N\OC(C)C(=O)O)c3csc(N)n3)C2SC1 (stereo not drawn) [Compound I-5]
- MIC [1]: 4 µg/mL (≈ 6.41 µM)
- MIC [2]: 128 µg/mL (≈ 205 µM)
- MIC [3]: 1 µg/mL (≈ 1.6 µM)
- MIC [4]: 0.5 µg/mL (≈ 0.802 µM)
- MIC [5]: 0.063 µg/mL (≈ 0.101 µM)
- MIC [6]: 0.031 µg/mL (≈ 0.0497 µM)
- MIC [7]: 0.25 µg/mL (≈ 0.401 µM)
- MIC [8]: ≤ 0.008 µg/mL
- MIC [9]: 0.031 µg/mL (≈ 0.0497 µM)
- MIC [10]: 0.031 µg/mL (≈ 0.0497 µM)
- MIC [11]: ≤ 0.008 µg/mL
- MIC [12]: 2 µg/mL (≈ 3.21 µM)
- MIC [13]: 1 µg/mL (≈ 1.6 µM)
- MIC [14]: 1 µg/mL (≈ 1.6 µM)
- MIC [15]: 0.13 µg/mL (≈ 0.208 µM)
- MIC [16]: 0.063 µg/mL (≈ 0.101 µM)
- MIC [17]: 0.031 µg/mL (≈ 0.0497 µM)
- MIC [18]: 0.031 µg/mL (≈ 0.0497 µM)
- MIC [19]: 2 µg/mL (≈ 3.21 µM)
- MIC [20]: 2 µg/mL (≈ 3.21 µM)
- MIC [21]: 1 µg/mL (≈ 1.6 µM)
- MIC50 [22]: 0.063 µg/mL (≈ 0.101 µM)
- MIC90 [22]: 0.25 µg/mL (≈ 0.401 µM)
- MIC50 [23]: 4 µg/mL (≈ 6.41 µM)
- MIC90 [23]: 4 µg/mL (≈ 6.41 µM)
- MIC50 [24]: > 128 µg/mL
- MIC90 [24]: > 128 µg/mL
- MIC50 [25, 28]: 4 µg/mL (≈ 6.41 µM)
- MIC90 ([25]; 54 clinical isolates, broth microdilution test, read-out: MIC 90%): 8 µg/mL (≈ 12.8 µM)
- concentration at 1 h [26]: 9700 ng/mL
- concentration at 2 h [26]: 3000 ng/mL
- AUC [26]: 39000 ng·h/mL
- half-life ([26]; read-out: T1/2 (α)): 5 min
- half-life ([26]; read-out: T1/2 (β)): 36 min
- concentration at 1 min [27]: 134000 ng/mL
- concentration at 2.5 min [27]: 91000 ng/mL
- concentration at 5 min [27]: 72000 ng/mL
- concentration at 10 min [27]: 49000 ng/mL
- concentration at 20 min [27]: 29000 ng/mL
- concentration at 40 min [27]: 13000 ng/mL

— patent US5202315A, “Cephalosporin compounds” (Lucky, Ltd., priority 1989, dated 1993)
